Where two headings read alike, the source gives them in different places.
Key:
[1] = test system: vascular smooth muscle; conditions: according to data in European Patent No. 41,757; cited from earlier work
[2] = test system: systemic hemodynamics; test: Effects on systemic hemodynamics in dogs anaesthetized with pentobarbital (i.v. bolus); assay type: in vivo, dog; conditions: for Heart rate: average ± SD, basal: Compound II 167±15, Compound A 178±11; for Heart index: basal: Compound II 1.547±0.147, Compound A 1.820±0.311; for Total peripheral resistances: basal: Compound II 78.497±8.587 (** p<0.01), Compound A 63.985±5.037; for Arterial pressure, minimum: basal: Compound II 101±5 (** p<0.01), Compound A 97±11; for Arterial pressure, medium: basal: Compound II 117±7 (** p<0.01), Compound A 112±12; for Maximum ejection rate: basal: Compound II 126.79±14.41 (* p<0.05), Compound A 138.59±21.74; for Arterial pressure, maximum: basal: Compound II 149±11 (* p<0.05), Compound A 143±14
Method: (§1) Catheters for detection of arterial pressure and flow electromagnetic transducers for measuring heart flow (heart index) and coronary flow were inserted in dogs anaesthetized with pentobarbital. The resistances were calculated from the pressure/flow ratio.

[3] = test system: serotonin-induced shape change of rat blood platelets; test: Change of the shape of blood platelets induced by serotonin; assay type: cell-based; conditions: Platelet, pre-treated, dihydrochloride
Method: (c) Change of the shape of blood platelets induced by serotonin. The addition of serontonin to rat blood platelets causes a change in the shape which is measured by an aggregometer as maximum decrease in light transmission.
Compund II (dihydrochloride) was tested by pre-treating the blood platelets with different concentrations of product and the activity was expressed as 50% inhibiting concentration (IC50).

[4] = test system: coronary hemodynamics; test: Effects on coronary hemodynamics in dogs anaesthetized with pentobarbital (i.v. bolus); assay type: in vivo, dog
Method: as §1

[5] = test system: smooth muscle cells isolated from rat aorta; test: Inhibition of arterial smooth muscle cell proliferation; assay type: cell-based
Method: A culture of smooth muscle cells was isolated by rat aorta incubated in the presence of the tested Compounds II, A, B, C and D for 24, 48 and 72 hours in a minimal essential medium added with bovine fetal serum: at the above intervals the number of cells in the culture was counted by a hemocytometer and compared with the number of cells in a control culture.

[6] = test system: serotonin-induced spasm of mesenteric artery; test: Antagonism towards vascular spasms induced by serotonin, mesenteric artery strips; assay type: cell-based; conditions: Krebs solution 37 °C, fiduciary limits 0.15-0.31
Method: (§2) (a) Antagonism towards vascular spasms induced by serotonin. Vascular strips of mesenteric artery and rabbit aorta were put into baths for isolated organ containing Krebs solutions at 37° C. and aerated with a mixture of oxygen and carbon dioxide 95:5.
(§3) The addition of serotonin to the bath causes a spasm which is detected by a strength transducer.
(§4) The antagonistic activity of compound II, evaluated as inhibiting concentration (IC50), gave the following results: […]

[7] = test system: serotonin-enhanced aggregation of dog blood platelets; test: Enhancement in aggregation induced by serotonin, dog blood platelets; assay type: cell-based; conditions: Canis lupus familiaris, Platelet, dihydrochloride, read-out: Threshold Inhibiting Concentration (TlC)
Method: (b) Enhancement in aggregation induced by serotonin.
The addition of 5HT to dog blood platelets causes the aggregation of non-aggregating concentrations of adenosine diphosphate, collagen and adrenaline.
The effects of compound II (dihydrochloride) expressed as single concentration, were evaluated by pre-incubating the blood platelets with different concentrations of the product and expressed as Threshold Inhibiting Concentration (TlC): […]

[8] = test system: serotonin; test: Specific antagonism of serotonin effects on blood platelets and vessels (general statement)
From the text: Evaluation of specific antagonistic activity to serotonin (5TH) effects

[9] = test system: serotonin-induced spasm of rabbit aorta; test: Antagonism towards vascular spasms induced by serotonin, aorta strips; assay type: cell-based; conditions: Oryctolagus cuniculus, Krebs solution 37 °C, fiduciary limits 0.05-0.56
Method: as §2, §3, §4

[10] = test system: arteriosclerotic plaques in aorta; test: Prevention of the formation of arteriosclerotic plaques in rabbits on hypercholesterolemic diet; assay type: in vivo, rabbit
Method: Rabbits HY/CR were feeded with iperchloesterolemic diet (2% (cholesterol) for 60 days at the end of which, by planimetry after colouring aorta with Sindon Black, the extent of arteriosclerotic plaques was evaluated. […]

COc1cc(CN(C)CCN(C)CCC(c2ccccc2)c2ccccc2)cc(OC)c1OC [Compound A, N,N'-dimethyl-N-(3,4,5-trimethoxybenyl)-N'-(3,3-diphenyl-propyl)-ethylenediamine, reference compound]
Anti-spasmodic activity (in words) [1]: most active compound
Hemodynamic effects compared with Compound II (in words) ([2]; dog, 1 mg/kg (four times higher dose)): Comparable effects to compound II
Cardiac output (in words) ([2]; dog, Compound A at 1 mg/kg): decrease in cardiac output
Effects on peripheral vascular resistances and on arterial pressure (in words) ([2]; dog, i.v. bolus 0.25 mg/kg): borderline effects
Systolic index ([2]; dog, i.v. bolus 0.25 mg/kg, Compound A, basal 10.09±1.29 (* p<0.05)): 11.11±1.49 ml/beatsm^2
Heart rate ([2]; dog, i.v. bolus 0.25 mg/kg): 147±8 beats/min
Heart index ([2]; dog, i.v. bolus 0.25 mg/kg): 1.615±0.237 l/min/m^2
Total peripheral resistances ([2]; dog, i.v. bolus 0.25 mg/kg): 45.023±2.849 mmHg/l/min.
Arterial pressure, minimum ([2]; dog, i.v. bolus 0.25 mg/kg): 50±3 mmHg
Arterial pressure, medium ([2]; dog, i.v. bolus 0.25 mg/kg): 71±8 mmHg
Maximum ejection rate ([2]; dog, i.v. bolus 0.25 mg/kg): 135.58±17.55 ml/sec/m^2
Arterial pressure, maximum ([2]; dog, i.v. bolus 0.25 mg/kg): 98 mmHg

COc1cc(CN(C)CCN(C)CCC(c2ccc(F)cc2)c2ccc(F)cc2)cc(OC)c1OC [Compound II, N,N'-dimethyl-N-(3,4,5-trimethoxybenzyl)-N'-[3,3-di-(4-fluorophenyl)-propyl]-ethylenediamine]
IC50 [3]: 8.35 ± 1.35 µM
Coronary vascular resistances (in words) ([4]; anesthetized dogs): decrease in systemic and coronary vascular resistances
Arterial pressure, minimum ([4]; dog, coronary hemodynamics, i.v. bolus 0.25 mg/kg, basal 103±6): 87±3 mmHg
Arterial pressure, medium ([4]; dog, coronary hemodynamics, i.v. bolus 0.25 mg/kg, basal 116±4): 102±5 mmHg
Heart rate ([4]; dog, coronary hemodynamics, i.v. bolus 0.25 mg/kg, basal 140±14): 143±15 beats/min
Arterial pressure, maximum ([4]; dog, coronary hemodynamics, i.v. bolus 0.25 mg/kg, basal 145±3): 142±5 mmHg
Average coronary resistances ([4]; dog, i.v. bolus 0.25 mg/kg, basal 2.887±0.381, * p<0.05): 1.301±0.141 mmHg/ml/min
Left circumflex coronary artery flow ([4]; dog, i.v. bolus 0.25 mg/kg, basal 41.3±3.7, * p<0.05): 101.6 ± 10.8 mL/min
Arterial smooth muscle cell proliferation (in words) [5]: inhibit arterial smooth muscle cell proliferation
Inhibition of cell proliferation (in words) ([5]; 5 μM, 24, 48 and 72 hours): inhibited meaningfully cell proliferation
IC50 ([5]; rat aorta smooth muscle cells, 24, 48 and 72 hours (time of the IC50 not stated)): 10 µM
IC50 [6]: 0.22 µM
minimal effective concentration ([7]; adenosine diphosphate + serotonin): 37 ± 20 µM
minimal effective concentration ([7]; adrenaline + serotonin): 11 ± 5.4 µM
minimal effective concentration ([7]; collagen + serotonin): 5.6 ± 4 µM
Antagonism of serotonin effects on blood platelets and vessels (in words) [8]: able to antagonize, in a specific way, the effect of serotonin on blood platelets as well as on vessels
IC50 [9]: 0.16 µM
Reduction of the area of plaques in aorta ([10]; rabbit, 1 mg/kg s.c. twice a day, 60 days): 40%
Reduction of the formation / area of plaques in aorta ([10]; rabbit, 3 mg/kg s.c. twice a day, 60 days): 60%
Prevention of the formation of arteriosclerotic plaques (in words) ([10]; rabbits on hypercholesterolemic diet): able to prevent the formation of arteriosclerotic plaques
Cardiac output (in words) ([2]; anesthetized dogs): increase in cardiac output
Heart rate (in words) ([2]; anesthetized dogs): without a contemporaneous increase in heart rate
Systemic vascular resistances (in words) ([2]; anesthetized dogs): decrease in systemic and coronary vascular resistances
Systolic index ([2]; dog, i.v. bolus 0.25 mg/kg, Compound II, basal 9.51±1.24 (* p<0.05)): 13.39±1.00 ml/beats/m^2
Heart rate ([2]; dog, i.v. bolus 0.25 mg/kg): 156±12 beats/min
Heart index ([2]; dog, i.v. bolus 0.25 mg/kg): 2.088±0.240 l/min/m^2
Total peripheral resistances ([2]; dog, i.v. bolus 0.25 mg/kg): 44.366±4.200 mmHg/l/min.
Arterial pressure, minimum ([2]; dog, i.v. bolus 0.25 mg/kg): 72±2 mmHg
Arterial pressure, medium ([2]; dog, i.v. bolus 0.25 mg/kg): 89±3 mmHg
Maximum ejection rate ([2]; dog, i.v. bolus 0.25 mg/kg): 174.77±10.27 ml/sec/m^2
Arterial pressure, maximum ([2]; dog, i.v. bolus 0.25 mg/kg): 130±6 mmHg

Source: patent US4988735A, “Ethylene diamine active cardiovascular therapy” (Simes, priority 1987, dated 1991)
